Data as given in US5641789A, “Sulfonamide derivatives of benzenefused hydroxy substituted cycloalkyl and heterocyclic ring compounds” (Pfizer Inc., priority 1995, dated 1997).

System: PAF lethality in CD1 mice
Experiment: PAF lethality assay
Format: in vivo
Settings: Mus musculus; positive control; oral dosing 45 minutes before i.v. PAF; percent mortality compared to controls
Procedure: To evaluate the active compounds of the present invention, in vivo, they are tested by the so-called PAF lethality assay procedure: Materials:
Mice: CD1 males, all approximately the same weight (about 26 grams), 12 per group.
Vehicle for oral drug dosing: EES (5% ethanol, 5% emulphor, 90% saline). Stored at room temperature.
Drugs: For routine screening at 50 mg/kg, 20 mg drug is dissolved in 4 ml EES, using sonication in a sonicator bath or grinding in a Ten Broeck (trademark) grinder to dissolve drug if necessary. If solubility is still a problem, the drug is used as a suspension.
Vehicle for i.v. Injection: Saline with 2.5 mg/ml Bovine Serum Albumin (BSA, Sigma #A4378) and 0.05 mg/ml Propranolol (Sigma #P0884). Prepared fresh daily and kept at room temperature.
Platelet Activating Factor (PAF): A […] stock solution is prepared by dissolving 1 mg PAF (Calbiochem #429460) in 0.18 ml ethanol. This stored at -20° C. and is diluted in vehicle (see above) the day of use. The concentration of PAF used is calibrated so that when injected at 0.1 ml/10 grams body weight, it will kill approximately 80% of untreated controls. This is usually about […] (a 1 to 2034 dilution from stock). […]
45 minutes before PAF injection, mice are treated orally with drug using 0.1 ml/10 grams body weight. […] Results are expressed as percent mortality as compared to controls. […]

SMILES: O=C1CCN(c2ccccc2)N1 [Phenidone]
- ED50: ~25 mg/kg
